Measured values published in patent US20150307554A1, “NTS-POLYPLEX NANOPARTICLES SYSTEM FOR GENE THERAPY OF CANCER” (priority 2011, published 2015).

What was measured:
MCF7 cells = assay: Internalization of NTS-polyplex via NTSR1 endocytosis with blocking assays, MCF7; type: cell-based, human; settings: NTS 1 μM, SR48692 500 nM, sucrose 0.45 M
Method: (§1) The cytoplasm was stained with calcein AM (green). Cells were analyzed by confocal multi spectral imaging system TCS-SPE (Leica Mycrosystems, Wetzlar, Germany). The fluorescence was detected under the following conditions Ex/Em: 405/430 nm for the blue channel with UV light; 488/512-573 nm for the green channel with an argon laser; and 563/563-544 for the red channel with a Helium-Neon laser. We obtained 10 to 20 consecutive optical sections of 1 μm apart in the z series.

MDA-MB-231 cells = assay: Internalization of NTS-polyplex via NTSR1 endocytosis with blocking assays, MDA-MB-231; type: cell-based, human; settings: NTS 1 μM, SR48692 500 nM, sucrose 0.45 M
Method: as §1

Row | Structure (SMILES) | blocking of NTS-polyplex internalization (MCF7 cells) | blocking of NTS-polyplex internalization (MDA-MB-231 cells)
1 | COc1cccc(OC)c1-c1cc(C(=O)NC2(C(=O)O)C3CC4CC(C3)CC2C4)nn1-c1ccnc2cc(Cl)ccc12 (stereo not shown) [SR48692] | prevented the entrance of NTS-polyplex | prevented the entrance of NTS-polyplex
2 | OC[C@H]1O[C@@](CO)(O[C@H]2O[C@H](CO)[C@@H](O)[C@H](O)[C@H]2O)[C@@H](O)[C@@H]1O [sucrose] | blocked | blocked
